# Source: publication PMC12013085, “Peptides targeting RAB11A–FIP2 complex inhibit HPIV3, RSV, and IAV replication as broad-spectrum antivirals” (Cell & Bioscience, 2025)
# pIC50: −log10 of the molar value. Where a SMILES comes first, the peptide text is derived from it.
# Experiments:
# RAB11A–FIP2 complex = assay: In vitro co-IP of mixed 293T lysates (FIP2, N protein, RAB11A)
# Protocol: 293 T cells were individually transfected with plasmids encoding FIP2, the N protein, and RAB11A for 36 h, after which their lysates were mixed for in vitro co-IP analysis. […] All experiments were independently replicated at least twice with consistent results. Statistical significance (*p < 0.05) was determined by two-sided unpaired t-test. Data are presented as means ± SEM
# 293T cells were transfected with the indicated plasmids for 36 h, and cell lysates were prepared using lysis buffer as described in the Western blot (WB) analysis section. The supernatants were collected and incubated with anti-Flag or anti-Myc magnetic beads (MCE) following the manufacturer’s instructions for co-IP. The immunoprecipitated proteins were then analyzed via WB.
# RSV [1] = assay type: in vivo, nude BALB/c mice
# [2] = In vivo biodistribution of Cy5-YT-DRI, IVIS imaging; details: BALB/c mice, i.p. administration
# Protocol: Female BALB/c mice, aged 6–8 weeks, were randomly divided into two groups. One group received an intraperitoneal injection of PBS (n = 3) for background fluorescence measurement, while the other group received 5 mg/kg Cy5-YT-DRI (n = 3). Bioluminescence readings were performed at various time points using the IVIS Lumina K Series III. Following imaging, mice were euthanized, and the indicated tissues were collected for further evaluation of fluorescence values. The average radiance is expressed as the sum of photons per second from each pixel inside the region of interest per the number of pixels (p s^−1 cm^−2 sr^−1).
# Supplementary file 13578_2025_1384_MOESM7_ESM.tif: Supplementary Material 7. Fig. S7. In Vivo biodistribution of Cy5-YT-DRI. (A) Mice were treated with PBS or Cy5-YT-DRI (5mg/kg) via intraperitoneal injection. Bioluminescence readings were conducted at different time points using the IVIS Lumina K Series III for ventral (the upper row) and dorsal (the lower row) views, and the average radiance is expressed as the sum of the photons per second from each pixel inside the region of interest per the number of pixels (p s−1 cm−2 sr−1). (B-F) Representative images of the brains(B), lungs (C), livers (D), kidneys (E), and hearts (F) from the PBS-treated or Cy5-YT-DRI-treated mice. (G) Normalized bioluminescence results are expressed as means ± SEM from at least two experiments. […]
# HPIV3, RSV, and IAV = assay type: cell-based
# RSV [3] = tested on: RSV
# [4] = In vivo drug toxicity study; details: male ICR mice, 5 or 10 mg/kg i.p. for consecutive 3 days
# Protocol: The 6–8 weeks old male ICR male mice, were randomly assigned into three groups and each group had 5 mice. The mice were i.p. injected with 5 mg/kg YT-DRI, 10 mg/kg YT-DRI, or the same volume of PBS for consecutive 3 days. During the experiment, body weight was recorded for 15 days. At the end of the experiment, the mice were perfused, and tissue samples of heart, liver, lung, and kidney were collected for histopathological examination.
# Supplementary file 13578_2025_1384_MOESM8_ESM.tif: Supplementary Material 8. Fig. S8. In vivo safety of YT-DRI. (A) Body weight changes of the 6-week-old ICR mice treated with PBS or 5 mg/kg or 10 mg/kg of YT-DRI at the indicated time points. (B) Hematoxylin and eosin staining of various tissues under an optical microscope for histopathological morphology analysis at 14 days after i.p. administration. Scale bar, 200 μm.
# IAV = assay type: cell-based, influenza A virus; details: IAV MOI 0.01, 5 μM, 24 hpi, TCID50
# [5] = tested on: HeLa, A549, MK2, MDCK and HEp-2 cells; details: CCK-8, 24 h treatment, in the tested cell lines (HeLa, A549, MK2, MDCK, HEp-2)
# EV71 = assay type: cell-based, Enterovirus 71; details: HeLa cells, EV71 MOI = 0.1, escalating concentrations, 24 hpi, TCID50
# WSN virus = assay type: in vivo, BALB/c mice
# HPIV3 VLPs in 293T cells = assay: HPIV3 VLP budding and plasma membrane fraction assay, WB; assay type: cell-based; details: 293T cells, compared to Tat-treated control
# Protocol: (§1) Data are presented as means ± SEM
# The cell lysates were prepared as described for the Western blot (WB) analysis. The supernatant was harvested and clarified by centrifugation at 12,000×g for 5 min. Subsequently, the supernatant was pelleted through a 20% sucrose cushion at 4 °C at 35,000 rpm for 2 h. The VLP pellets obtained were resuspended in PBS and boiled with SDS-PAGE loading buffer at 100 °C for 10 min. Both the cell lysates and the supernatants were then subjected to WB analysis.
# 293T cells, cultured in 6-cm dishes, were transfected with the indicated plasmids for 24 h. Cell collection was performed through centrifugation at 500×g for 5 min at 4 °C. Subsequently, cytosol, organelle membrane, and plasma membrane-associated proteins were extracted sequentially using the MinuteTM plasma membrane protein isolation and cell fractionation kit (INVENT), following the manufacturer's instructions.
# [6] = tested on: HPIV3 clinical strain VR93; assay type: in vivo, nude BALB/c mice
# HPIV3HA-P vRNP = assay: vRNP distribution by immunofluorescence in HPIV3HA-P-infected HeLa cells; assay type: cell-based; details: HPIV3HA-P MOI = 0.01, 5 μM peptide, 24 h
# Protocol: as §1
# HeLa cells were cultured on coverslips in 24-well plates overnight and subjected to transfection or/and virus infection as indicated. Following this, cells were fixed with 4% paraformaldehyde for 20 min at room temperature (RT) and permeabilized with 0.2% Triton X-100 for 20 min at RT. Subsequently, cells were blocked with 3% bovine serum albumin (BSA) in PBS for 30 min at RT. The cells were then incubated with primary antibodies diluted in 1% BSA, followed by incubation with secondary antibodies, also diluted in 1% BSA. Nuclei were counterstained with DAPI, and plasma membrane were stained with Dil. Confocal microscopy images were acquired using a Leica confocal microscope.
smiles,measurement,setting,value
CC[C@@H](C)[C@@H](NC(=O)[C@@H](CC(=O)O)NC(=O)[C@@H](CC(N)=O)NC(=O)[C@@H](CC(C)C)NC(=O)[C@@H](CC(C)C)NC(=O)[C@H](NC(=O)[C@@H](CCCNC(=N)N)NC(=O)[C@H](NC(=O)[C@@H](CCSC)NC(=O)[C@@H](CCC(=O)O)NC(=O)[C@@H](CCC(=O)O)NC(=O)[C@H](NC(=O)[C@@H](CCCNC(=N)N)NC(=O)[C@@H](CCCCN)NC(=O)[C@@H](CCCCN)NC(=O)[C@@H](CCCNC(=N)N)NC(=O)[C@@H](CCCNC(=N)N)NC(=O)[C@@H](CCC(N)=O)NC(=O)[C@@H](CCCNC(=N)N)NC(=O)[C@@H](CCCNC(=N)N)NC(=O)[C@H](N)CCCNC(=N)N)[C@H](C)O)C(C)C)C(C)C)C(=O)N[C@H](Cc1ccc(O)cc1)C(=O)O [YT-DRI] (HELM PEPTIDE1{[dR].[dR].[dR].[dQ].[dR].[dR].[dK].[dK].[dR].[dT].[dE].[dE].[dM].[dV].[dR].[dV].[dL].[dL].[dN].[dD].[dI].[dY]}$$$$V2.0; N-terminus and C-terminus assumed),N-RAB11A interaction,RAB11A–FIP2 complex,undetectable
same,interaction between FIP2 and RAB11A,RAB11A–FIP2 complex; in contrast to control peptide Tat,significantly attenuated
same,"body weight loss, RSV-infected mice","RSV [1]; 2 mg/kg i.p. once daily Day 0 to Day 3, vs PBS, n = 5",reduced body weight loss
same,"lung histology, RSV","RSV [1]; 2 mg/kg i.p., 4 dpi, H&E",diminished lung tissue damage
same,"viral RNA copies in the lung, RSV","RSV [1]; 2 mg/kg i.p., 4 dpi, RT-qPCR",lower viral RNA copies
same,"infectious titers in the lung, RSV","RSV [1]; 2 mg/kg i.p., 4 dpi, TCID50",decreased infectious titers
same,transport across the blood–brain barrier,[2],facilitated transport across the blood–brain barrier
same,"replication of HPIV3, RSV, and IAV in coinfection (viral RNA accumulation)","HPIV3, RSV, and IAV",markedly impeded the replication
same,"SI (CC50/IC50), RSV, A549",RSV [3]; 2 h,> 405.41
same,"SI (CC50/IC50), RSV, HEp-2",RSV [3]; 2 h,> 681.82
same,"SI (CC50/IC50), RSV, HeLa",RSV [3]; 2 h,> 220.59
same,"SI (CC50/IC50), RSV, MDCK",RSV [3]; 2 h,> 326.09
same,antiviral effect on RSV infection in RAB11A-KO HeLa cells,"RSV [3]; RSV MOI 0.1, 5 μM, 24 hpi, TCID50",no significant antiviral effect
same,acute toxicity: body weight,"[4]; body weight recorded for 15 days, 5 mice per group",no significant changes
same,acute toxicity: histopathological morphology,"[4]; heart, liver, lung, kidney, H&E",no significant changes
same,antiviral effect on IAV infection in RAB11A-KO HeLa cells,IAV,no significant antiviral effect
same,CC50,[5],> 150000 nM
same,HPIV3 viral growth in WT HeLa cells,HPIV3,significant reduction in viral growth
same,effect on HPIV3 in RAB11A-KO HeLa cells,HPIV3,moderate and statistically insignificant
same,pIC50,HPIV3; 36 h,6.03
same,"SI (CC50/IC50), HPIV3, A549",HPIV3; 36 h,> 263.16
same,"SI (CC50/IC50), HPIV3, HeLa",HPIV3; 36 h,> 159.57
same,"SI (CC50/IC50), HPIV3, MDCK",HPIV3; 36 h,> 102.74
same,"EV71 replication, treated compared to untreated cells",EV71,no significant differences
same,"body weight loss, IAV (WSN)-infected mice",WSN virus; 2 mg/kg i.p. once daily Day 0 to Day 4,reduced body weight loss
same,"survival rate, lethal IAV (WSN) infection","WSN virus; 2 mg/kg i.p. once daily Day 0 to Day 4, observed until 14 dpi, n = 5",80%
same,"viral RNA copies in the lungs, IAV (WSN)","WSN virus; 2 mg/kg i.p., 4 dpi, RT-qPCR, vs PBS",decreased viral RNA copies
same,"lung histology, IAV (WSN)","WSN virus; 2 mg/kg i.p., 4 dpi, vs PBS",milder lung inflammation
same,"levels of N, P, and M proteins in the PM fraction and VLPs",HPIV3 VLPs in 293T cells,reduced levels
same,"body weight loss, HPIV3-infected mice","[6]; 2 mg/kg i.p. once daily Day 0 to Day 2, vs PBS, n = 5",less weight loss
same,"lung histology, HPIV3","[6]; 2 mg/kg i.p., 3 dpi, H&E, vs PBS",reduced lung inflammation
same,"viral RNA copies in the lung, HPIV3","[6]; 2 mg/kg i.p., 3 dpi, RT-qPCR",significantly decreased
same,"infectious titers in the lung, HPIV3","[6]; 2 mg/kg i.p., 3 dpi, TCID50",significantly decreased
same,vRNP localization,HPIV3HA-P vRNP,formation of large aggregates of vRNP in the cytoplasm
